Measured values: PMC6234764, “First Insights Into Within Host Translocation of the Bacillus cereus Toxin Cereulide Using a Porcine Model” (Frontiers in Microbiology, 2018)
Like-named read-outs stand apart in the source and are kept apart here.

How the values were obtained:
[1] = Cereulide in organs and tissues, SIDA-MS; assay type: in vivo, pig; settings: for tissue level at time at 168 h / tissue level at time at 48 h: pig; for tissue level at time at 168 h: 10 ug/kg, daily oral dose 10 μg kg^-1 for 7 days
Description: A total of four experiments, each including four treated animals and one control pig, was performed to investigate the action of cereulide on piglets after oral intake of cereulide. Pigs were either challenged orally with a single dose (acute trials) or with daily over a period of 7 days (chronic trial) (see Table 1). One hour before cereulide toxin administration blood samples were taken by puncturing the anterior Vena cava and piglets were weighed for calculation of the cereulide concentration (t = 0 h). In the intoxication experiment with 150 μg kg^-1 blood samples were taken 68 h before the experiment to reduce the distress for the animals at the start day of the experiments. Blood-chemical, immunological, and histological analyses of selected organs as well as quantification of cereulide in organs, tissues, urine and feces were carried out as detailed below.
On body weight calculated amounts of cereulide, dissolved in ethanol, were mixed with milk (UHT milk; 3.5% fat), and fed to four piglets. Control piglets were fed with milk supplemented with similar ethanol concentrations as the experimental piglets. The experiment started after the uptake of the whole milk cereulide mixture. The milk was checked for bacterial contamination prior to the experiment.
After oral administration of cereulide, piglets were monitored for unusual behavior and examined physically with special respect on rectal body temperature as well as pulse and respiration rate, every 2–3 h. Blood samples were taken from the Vena cava cranialis. Urine and feces were collected during the whole experiment and stored at -80°C. After the experiment pigs were anaesthetized by intramuscular injection of a bolus of ketamine (10 mg kg^-1) and azaperone (1.3 mg kg^-1). When sedation was deep enough cerebrospinal fluid (liquor) was taken by lumbar puncture. Finally, pigs were euthanized by intracardial injection of T61®. Animals were then necropsied and parts of the following organs, tissues or body fluids were taken for SIDA-MS analysis: liver, lung, heart, kidney, brain, spleen, small and large intestine, lymph nodes, gastric as well as intestinal contents, skeletal muscle, and abdominal and subcutaneous fat. Samples of liver, lung, heart, kidney, brain, spleen, small, and large intestine were collected for histological analysis.
Collected blood samples, urine, feces, tissue and organs were freeze dried and stored at -80°C until analysis. Before extraction, liquid nitrogen was added to frozen samples and they were crushed to a powder using a mortar. Ten microgram ^13C6-cereulide (for organs and feces) or 5 μg ^13C6-cereulide (for urine and blood) was added and samples were incubated on a rocking table for 2 h. Samples were solved in ethanol (volume depending on weight 10–40 mL), incubated 14 h, and the supernatants were collected by centrifugation (RT, 8500 g, 10 min). For pre-purification the ethanolic extract was 1:5 diluted with water and applied onto the top of a methanol activated C18-SPE cartridge (6 mL; 1 g; Strata C18-E; Phenomenex, Aschaffenburg, Germany). The cartridge was washed with 6 mL water followed by methanol/water (4 mL; 70/30, v/v) and target compounds were eluted with ethanol (2.5 mL). Finally, samples were membrane filtrated (0.2 μm; PTFE membrane; Phenomenex, Aschaffenburg, Germany) and analyzed by means of LC-MS/MS as described previously ([Bauer et al., 2010]). In brief, LC-MS/MS analysis was performed using an Agilent 1200 HPLC-system connected to the API 4000QTrap LC-MS/MS (Applied Biosystems, Darmstadt, Germany) running in the positive electrospray ionization (ESI^+, +5500 V) mode. Zero grade air served as nebulizer gas (45 psi) and turbo gas (425°C) for solvent drying (55 psi), nitrogen was used as curtain (20 psi) and collision gas (8.7 × 10^-7 psi), respectively. Both quadrapoles were set at unit resolution. […]

[2] = ref Andersson et al., 2007; cited from earlier work
Description: Due to the lipophilic character of cereulide (log Kow 5.96) ([Andersson et al., 2007]), it could be assumed that part of the ingested cereulide adheres to digested food and is rapidly excreted via feces. Indeed, as shown in our porcine model, within the first 48 h 10–15% of the cereulide toxin orally administered is shed with feces. Cereulide was already detected in feces a few hours after toxin administration, which allows an early, non-invasive identification of cereulide intoxications. Even in case of the low dose of cereulide used in the chronic trial (10 μg cereulide kg^-1) cereulide coul ...

[3] = single oral dose 30 μg kg^-1, necropsy after 48 h, SIDA-MS
[4] = single oral dose 150 μg kg^-1, necropsy after 48 h, SIDA-MS

**Q.** With CC(C)C[C@H]1OC(=O)[C@H](C(C)C)NC(=O)[C@H](C(C)C)OC(=O)[C@@H](C)NC(=O)[C@@H](CC(C)C)OC(=O)[C@H](C(C)C)NC(=O)[C@H](C(C)C)OC(=O)[C@@H](C)NC(=O)[C@@H](CC(C)C)OC(=O)[C@H](C(C)C)NC(=O)[C@H](C(C)C)OC(=O)[C@@H](C)NC1=O [cereulide] as the molecule, how does the tissue level at time at 168 h ([1]; kidney, SIDA-MS, read-out: Cereulide concentration in kidney, average) read?
**A.** 0.25 ± 0.12 ng/g

**Q.** And the tissue level at time at 48 h ([1]; kidney, 150 ug/kg, single oral dose 150 μg kg^-1, necropsy after 48 h, SIDA-MS, read-out: Cereulide concentration in kidney, average)?
**A.** 0.21 ± 0.21 ng/g

**Q.** What about the tissue level at time at 168 h ([1]; large intestine, SIDA-MS, read-out: Cereulide concentration in large intestine, average) of the same molecule?
**A.** 3.11 ± 1.95 ng/g

**Q.** What about the tissue level at time at 48 h ([1]; large intestine, 30 ug/kg, single oral dose 30 μg kg^-1, necropsy after 48 h, SIDA-MS, read-out: Cereulide concentration in large intestine, average) of the same molecule?
**A.** 0.07 ± 0.06 ng/g

**Q.** What about the tissue level at time at 48 h ([1]; large intestine, 150 ug/kg, single oral dose 150 μg kg^-1, necropsy after 48 h, SIDA-MS, read-out: Cereulide concentration in large intestine, average) of the same molecule?
**A.** 30.5 ± 14.3 ng/g

**Q.** And the tissue level at time at 168 h ([1]; liver, SIDA-MS, read-out: Cereulide concentration in liver, average)?
**A.** 0.14 ± 0.08 ng/g

**Q.** What about the tissue level at time at 48 h ([1]; liver, 150 ug/kg, single oral dose 150 μg kg^-1, necropsy after 48 h, SIDA-MS, read-out: Cereulide concentration in liver, average) of the same molecule?
**A.** 0.37 ± 0.07 ng/g

**Q.** And the tissue level at time at 168 h ([1]; lymph nodes, SIDA-MS, read-out: Cereulide concentration in lymph nodes, average)?
**A.** 0.07 ± 0.07 ng/g

**Q.** What about the tissue level at time at 48 h ([1]; lymph nodes, 150 ug/kg, single oral dose 150 μg kg^-1, necropsy after 48 h, SIDA-MS, read-out: Cereulide concentration in lymph nodes, average) of the same molecule?
**A.** 2.82 ± 1.71 ng/g

**Q.** What about the tissue level at time at 168 h ([1]; muscle, SIDA-MS, read-out: Cereulide concentration in muscle, average) of the same molecule?
**A.** 1.12 ± 1.12 ng/g

**Q.** What about the tissue level at time at 48 h ([1]; muscle, 150 ug/kg, single oral dose 150 μg kg^-1, necropsy after 48 h, SIDA-MS, read-out: Cereulide concentration in muscle, average) of the same molecule?
**A.** 0.39 ± 0.32 ng/g

**Q.** And the tissue level at time at 48 h ([1]; small intestine, 150 ug/kg, single oral dose 150 μg kg^-1, necropsy after 48 h, SIDA-MS, read-out: Cereulide concentration in small intestine, average)?
**A.** 1.34 ± 0.88 ng/g

**Q.** What about the tissue level at time at 168 h ([1]; spleen, SIDA-MS, read-out: Cereulide concentration in spleen, average) of the same molecule?
**A.** 0.15 ± 0.06 ng/g

**Q.** What about the tissue level at time at 48 h ([1]; spleen, 150 ug/kg, single oral dose 150 μg kg^-1, necropsy after 48 h, SIDA-MS, read-out: Cereulide concentration in spleen, average) of the same molecule?
**A.** 2.26 ± 1.75 ng/g

**Q.** What about the tissue level at time at 48 h ([1]; stomach, 150 ug/kg, single oral dose 150 μg kg^-1, necropsy after 48 h, SIDA-MS, read-out: Cereulide concentration in stomach, average) of the same molecule?
**A.** 2 ± 3.2 ng/g

**Q.** And the tissue level at time at 168 h ([1]; subcutaneous fat, SIDA-MS, read-out: Cereulide concentration in subcutaneous fat, average)?
**A.** 0.04 ± 0.04 ng/g

**Q.** What about the tissue level at time at 48 h ([1]; subcutaneous fat, 150 ug/kg, single oral dose 150 μg kg^-1, necropsy after 48 h, SIDA-MS, read-out: Cereulide concentration in subcutaneous fat, average) of the same molecule?
**A.** 0.74 ± 0.51 ng/g

**Q.** What about the “Cereulide concentration in content of large intestine, range” value [1, 3] of the same molecule?
**A.** 0 to 0.09 ng/g

**Q.** And the “Cereulide concentration in large intestine, range” value [1, 3]?
**A.** 0 to 0.13 ng/g

**Q.** What about the “Cereulide in content of the large intestine, maximum” value ([1]; single oral dose 150 μg kg^-1) of the same molecule?
**A.** up to 140 ng g^-1

**Q.** And the “Cereulide in content of the small intestine, maximum” value ([1]; single oral dose 150 μg kg^-1)?
**A.** ≤ 1 ng/g

**Q.** And the “Cereulide in the brain, animal with highest blood concentration” value ([1]; single oral dose 150 μg kg^-1)?
**A.** 1.4 ng cereulide g^-1

**Q.** And the “Cereulide in fat tissue, one animal” value ([1]; single oral dose 150 μg kg^-1, animal with highest blood concentration)?
**A.** 2 ng cereulide g^-1 fat tissue

**Q.** And the “Cereulide concentration in abdominal fat, range” value [1, 4]?
**A.** 2.17 to 12.02 ng/g

**Q.** What about the “Cereulide concentration in brain, range” value [1, 4] of the same molecule?
**A.** 0.15 to 1.41 ng/g

**Q.** What about the “Cereulide concentration in content of large intestine, range” value [1, 4] of the same molecule?
**A.** 5.84 to 140.99 ng/g

**Q.** What about the “Cereulide concentration in content of small intestine, range” value [1, 4] of the same molecule?
**A.** 0 to 1.06 ng/g

**Q.** What about the “Cereulide concentration in kidney, range” value [1, 4] of the same molecule?
**A.** 0 to 0.43 ng/g

**Q.** And the “Cereulide concentration in large intestine, range” value [1, 4]?
**A.** 7.14 to 45.75 ng/g

**Q.** And the “Cereulide concentration in liver, range” value [1, 4]?
**A.** 0.25 to 0.41 ng/g

**Q.** And the “Cereulide concentration in lymph nodes, range” value [1, 4]?
**A.** 0 to 4.50 ng/g

**Q.** What about the “Cereulide concentration in muscle, range” value [1, 4] of the same molecule?
**A.** 0 to 0.76 ng/g

**Q.** What about the “Cereulide concentration in small intestine, range” value [1, 4] of the same molecule?
**A.** 0.34 to 2.49 ng/g

**Q.** What about the “Cereulide concentration in spleen, range” value [1, 4] of the same molecule?
**A.** 1.15 to 5.29 ng/g

**Q.** What about the “Cereulide concentration in stomach, range” value [1, 4] of the same molecule?
**A.** 0.11 to 7.54 ng/g

**Q.** What about the “Cereulide concentration in subcutaneous fat, range” value [1, 4] of the same molecule?
**A.** 0.35 to 1.37 ng/g

**Q.** What about the “Cereulide in fat tissues, maximum” value ([1]; single oral dose 150 μg kg^-1, two out of four animals) of the same molecule?
**A.** up to 12 ng cereulide g^-1

**Q.** What about the “log Kow” value [2] of the same molecule?
**A.** 5.96
